This note sets out measurements from PubChem BioAssay AID256 (DTP/NCI, 2004).

In this experiment the test system is CD2F1 mice, L1210 leukemia ip, survival T/C. The experiment in a line: NCI In Vivo Anticancer Drug Screen. Data for tumor model L1210 Leukemia (intraperitoneal) in CD2F1 (CDF1) mice. The note with it: higher = longer survival. A digest of the protocol: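 Antitumor effect is scored in animals hosting a serially transplanted tumor. Values compare compound-dosed animals against vehicle-only controls as a simple quotient.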

The mark [1] stands for this setting: endpoint: mean survival time, dose: 50.0 mg/kg/injection, schedule: Q04DX002 (ip), vehicle: saline with Tween-80.
The mark [2] stands for this setting: endpoint: mean survival time, dose: 50.0 mg/kg/injection, schedule: Q01DX001 (ip), vehicle: saline with Tween-80.
Where [3] appears, read: endpoint: mean survival time, dose: 100.0 mg/kg/injection, schedule: Q01DX001 (ip), vehicle: saline with Tween-80.
Where [4] appears, read: endpoint: mean survival time, dose: 50.0 mg/kg/injection, schedule: Q01DX009 (ip), vehicle: saline with Tween-80.
The mark [5] stands for this setting: endpoint: mean survival time, dose: 100.0 mg/kg/injection, schedule: Q01DX009 (ip), vehicle: saline with Tween-80.
Where [6] appears, read: endpoint: mean survival time, dose: 200.0 mg/kg/injection, schedule: Q01DX009 (ip), vehicle: saline with Tween-80.
The mark [7] stands for this setting: endpoint: mean survival time, dose: 100.0 mg/kg/injection, schedule: Q04DX002 (ip), vehicle: saline with Tween-80.
[8] abbreviates: endpoint: mean survival time, dose: 200.0 mg/kg/injection, schedule: Q04DX002 (ip), vehicle: saline with Tween-80.
Where [9] appears, read: endpoint: mean survival time, dose: 400.0 mg/kg/injection, schedule: Q04DX002 (ip), vehicle: saline with Tween-80.
[10] abbreviates: endpoint: mean survival time, dose: 100.0 mg/kg/injection, schedule: Q04DX003 (ip), vehicle: saline with Tween-80.
The mark [11] stands for this setting: endpoint: mean survival time, dose: 200.0 mg/kg/injection, schedule: Q04DX003 (ip), vehicle: saline with Tween-80.
The mark [12] stands for this setting: endpoint: mean survival time, dose: 400.0 mg/kg/injection, schedule: Q01DX009 (ip), vehicle: saline with Tween-80.

Molecules are shown by their SMILES. Where “and” joins values, the source holds several entries; their conditions need not be identical. Equal entries are not always repeated. Inconclusive results and toxic doses are left out.

In the case of `COC(=O)C12OCC34C(CC5C(C)C6=CC(=O)OC6=CC5(C)C3C(O)C1O)OC(=O)C(O)C24` (configuration not stated), the T/C (endpoint: median survival time, dose: 0.25 mg/kg/injection, schedule: Q01DX005 (ip), vehicle: Klucel (hydroxypropylcellulose) (HPC)) is 112 % of control and the T/C (endpoint: median survival time, dose: 0.5 mg/kg/injection, schedule: Q01DX005 (ip), vehicle: Klucel (hydroxypropylcellulose) (HPC)) was 114 % of control.
Consider `Cc1cc2c(cc1C)[n+]([O-])c1c(=O)[nH]c(=O)[nH]c1[n+]2[O-]`, for which the T/C was 98 % of control (endpoint: mean survival time, dose: 25.0 mg/kg/injection, schedule: Q04DX002 (ip), vehicle: saline with Tween-80) and 102 % of control under setting [1].
`Oc1c(F)c(F)c(-c2c(F)ccc(F)c2F)c(F)c1F`: the T/C was 92 % of control (endpoint: mean survival time, dose: 25.0 mg/kg/injection, schedule: Q01DX001 (ip), vehicle: saline with Tween-80); 102 % of control under setting [2]; 94 % of control under setting [3].
Regarding `COC(=O)Cc1nc2ccccc2[nH]c1=O`, the T/C under setting [4] was 103 % of control, the T/C under setting [5] was 92 % of control and the T/C under setting [6] was 100 % of control.
For `CC1CN1C(=O)NCCCCCCNC(=O)N1CC1C` (configuration not stated), the T/C by setting is: (endpoint: mean survival time, dose: 0.31 mg/kg/injection, schedule: Q01DX009 (ip), vehicle: Klucel (hydroxypropylcellulose) (HPC)) 89 % of control; (endpoint: mean survival time, dose: 0.63 mg/kg/injection, schedule: Q01DX009 (ip), vehicle: Klucel (hydroxypropylcellulose) (HPC)) 119 % of control and 101 % of control; (endpoint: mean survival time, dose: 1.25 mg/kg/injection, schedule: Q01DX009 (ip), vehicle: Klucel (hydroxypropylcellulose) (HPC)) 97 % of control; (endpoint: mean survival time, dose: 2.5 mg/kg/injection, schedule: Q01DX001 (ip), vehicle: Klucel (hydroxypropylcellulose) (HPC)) 98 % of control; (endpoint: mean survival time, dose: 2.5 mg/kg/injection, schedule: Q01DX009 (ip), vehicle: Klucel (hydroxypropylcellulose) (HPC)) 110 % of control; (endpoint: mean survival time, dose: 5.0 mg/kg/injection, schedule: Q01DX001 (ip), vehicle: Klucel (hydroxypropylcellulose) (HPC)) 94 % of control. Besides, the T/C is 156 % of control (endpoint: mean survival time, dose: 5.0 mg/kg/injection, schedule: Q01DX009 (ip), vehicle: Klucel (hydroxypropylcellulose) (HPC)); 100 % of control (endpoint: mean survival time, dose: 10.0 mg/kg/injection, schedule: Q01DX001 (ip), vehicle: Klucel (hydroxypropylcellulose) (HPC)); 107 % of control (endpoint: mean survival time, dose: 20.0 mg/kg/injection, schedule: Q01DX001 (ip), vehicle: Klucel (hydroxypropylcellulose) (HPC)).
For the compound `N[C@@H](C[C@H]1CCC(=O)[C@@H]2O[C@H]12)C(=O)O`, the T/C is, setting by setting: (endpoint: mean survival time, dose: 100.0 mg/kg/injection, schedule: Q04DX002 (ip), vehicle: saline) 117 % of control and 107 % of control; (endpoint: mean survival time, dose: 400.0 mg/kg/injection, schedule: Q04DX002 (ip), vehicle: saline) 167 % of control; (endpoint: median survival time, dose: 50.0 mg/kg/injection, schedule: Q01DX005 (ip), vehicle: saline) 113 % of control and 110 % of control; (endpoint: median survival time, dose: 100.0 mg/kg/injection, schedule: Q01DX005 (ip), vehicle: saline) 122 % of control and 124 % of control; (endpoint: median survival time, dose: 144.0 mg/kg/injection, schedule: Q01DX005 (ip), vehicle: saline) 110 % of control; (endpoint: median survival time, dose: 172.8 mg/kg/injection, schedule: Q01DX005 (ip), vehicle: saline) 119 % of control. Besides, the T/C is 114 % of control (endpoint: median survival time, dose: 240.0 mg/kg/injection, schedule: Q01DX005 (ip), vehicle: saline); 121 % of control (endpoint: median survival time, dose: 288.0 mg/kg/injection, schedule: Q01DX005 (ip), vehicle: saline); 155 % of control (endpoint: median survival time, dose: 800.0 mg/kg/injection, schedule: Q01DX005 (ip), vehicle: saline).
With `S=c1cn[nH]c2ccc(Br)cc12`, the T/C was 96 % of control (endpoint: mean survival time, dose: 100.0 mg/kg/injection, schedule: Q01DX001 (ip), vehicle: other); 103 % of control (endpoint: mean survival time, dose: 200.0 mg/kg/injection, schedule: Q01DX001 (ip), vehicle: other); 92 % of control (endpoint: mean survival time, dose: 400.0 mg/kg/injection, schedule: Q01DX001 (ip), vehicle: other).
For the compound `O=C(Nc1ccccc1Cl)Nc1ccccc1Cl`, the T/C is 90 % of control under setting [7], 94 % of control under setting [8] and 94 % of control under setting [9].
`C[N+](C)(C)CC(=O)N/N=C\c1c(O)ccc2ccccc12`: the T/C under setting [10] was 97 % of control.
For the compound `CNC(CCNCCc1ccccc1)CNCCc1ccccc1` (configuration not stated), the T/C runs as follows: (endpoint: mean survival time, dose: 75.0 mg/kg/injection, schedule: Q01DX001 (ip), vehicle: saline) 97 % of control; (endpoint: mean survival time, dose: 150.0 mg/kg/injection, schedule: Q01DX001 (ip), vehicle: saline) 107 % of control.
In the case of `BrC(Br)(c1ccccc1)C1OCCO1`, the T/C was 107 % of control under setting [2]; 100 % of control (endpoint: mean survival time, dose: 50.0 mg/kg/injection, schedule: Q04DX003 (ip), vehicle: saline with Tween-80); 100 % of control under setting [3]; 101 % of control under setting [10]; 102 % of control (endpoint: mean survival time, dose: 200.0 mg/kg/injection, schedule: Q01DX001 (ip), vehicle: saline with Tween-80); 97 % of control under setting [11].
Take `NCCCC(NN)C(=O)O` (configuration not stated): the T/C reads like this: (endpoint: mean survival time, dose: 7.5 mg/kg/injection, schedule: Q01DX009 (ip), vehicle: saline) 100 % of control; (endpoint: mean survival time, dose: 15.0 mg/kg/injection, schedule: Q01DX009 (ip), vehicle: saline) 97 % of control; (endpoint: mean survival time, dose: 30.0 mg/kg/injection, schedule: Q01DX009 (ip), vehicle: saline) 94 % of control.
`O=C(O[Si](Cc1ccccc1)(Cc1ccccc1)Cc1ccccc1)N(CCCl)CCCl`: the T/C was 109 % of control (endpoint: mean survival time, dose: 6.25 mg/kg/injection, schedule: Q01DX009 (ip), vehicle: distilled water + Tween-80); 96 % of control (endpoint: mean survival time, dose: 6.25 mg/kg/injection, schedule: Q01DX009 (ip), vehicle: saline with Tween-80); 103 % of control (endpoint: mean survival time, dose: 12.5 mg/kg/injection, schedule: Q01DX009 (ip), vehicle: saline with Tween-80); 117 % of control (endpoint: mean survival time, dose: 25.0 mg/kg/injection, schedule: Q01DX009 (ip), vehicle: distilled water + Tween-80); 111 % of control (endpoint: mean survival time, dose: 25.0 mg/kg/injection, schedule: Q01DX009 (ip), vehicle: saline with Tween-80); 121 % of control under setting [4]. Also, the T/C is, setting by setting: under setting [5], 123 % of control; (endpoint: mean survival time, dose: 200.0 mg/kg/injection, schedule: Q01DX009 (ip), vehicle: distilled water + Tween-80) 91 % of control; under setting [6], 152 % of control.
Consider `CSc1cccnn1`, for which the T/C runs as follows: (endpoint: mean survival time, dose: 100.0 mg/kg/injection, schedule: Q04DX003 (ip), vehicle: saline) 93 % of control; (endpoint: mean survival time, dose: 200.0 mg/kg/injection, schedule: Q04DX003 (ip), vehicle: saline) 98 % of control; (endpoint: mean survival time, dose: 400.0 mg/kg/injection, schedule: Q04DX003 (ip), vehicle: saline) 95 % of control.
With `COc1ccc(C(=O)O)c(N)c1`, the T/C is 95 % of control under setting [5]; 94 % of control under setting [10]; 92 % of control under setting [6]; 97 % of control under setting [11]; 101 % of control under setting [12]; 97 % of control (endpoint: mean survival time, dose: 400.0 mg/kg/injection, schedule: Q04DX003 (ip), vehicle: saline with Tween-80).
Turning to `CCN(CC)C(=O)Nc1ccccc1Cl`, the T/C runs as follows: under setting [7], 105 % of control; under setting [8], 108 % of control; under setting [9], 94 % of control.
With `CCCCCCCCCCCCCCCCCCSC1=CC(=O)C(OC)=C(OC)C1=O`, the T/C (endpoint: mean survival time, dose: 3.13 mg/kg/injection, schedule: Q01DX009 (ip), vehicle: Klucel (hydroxypropylcellulose) (HPC)) was 90 % of control; the T/C (endpoint: mean survival time, dose: 6.25 mg/kg/injection, schedule: Q01DX009 (ip), vehicle: Klucel (hydroxypropylcellulose) (HPC)) is 88 % of control; the T/C (endpoint: mean survival time, dose: 50.0 mg/kg/injection, schedule: Q01DX009 (ip), vehicle: Klucel (hydroxypropylcellulose) (HPC)) is 94 % of control.
In the case of `O=CNc1ccc([N+](=O)[O-])cc1`, the T/C under setting [5] is 101 % of control, the T/C under setting [6] is 94 % of control and the T/C under setting [12] was 91 % of control.
Regarding `Cc1ccc(S(=O)(=O)NNC(=O)c2ccccc2C(=O)O)cc1`, the T/C reads like this: under setting [1], 96 % of control; under setting [7], 100 % of control; under setting [8], 100 % of control; under setting [9], 96 % of control.
